Source: PMC9326216, “Treatment of Cardiovascular Dysfunction with PDE3-Inhibitors in Moderate and Severe Hypothermia—Effects on Cellular Elimination of Cyclic Adenosine Monophosphate and Cyclic Guanosine Monophosphate” (Frontiers in Physiology, 2022)
Read-outs that look alike come from different tables or passages of the source.

Columns and labels:
[1] = target: T1, ABCC4 (Homo sapiens, UniProt O15439); assay: biochemical; format: biochemical
T1 sequence (O15439 1-1325): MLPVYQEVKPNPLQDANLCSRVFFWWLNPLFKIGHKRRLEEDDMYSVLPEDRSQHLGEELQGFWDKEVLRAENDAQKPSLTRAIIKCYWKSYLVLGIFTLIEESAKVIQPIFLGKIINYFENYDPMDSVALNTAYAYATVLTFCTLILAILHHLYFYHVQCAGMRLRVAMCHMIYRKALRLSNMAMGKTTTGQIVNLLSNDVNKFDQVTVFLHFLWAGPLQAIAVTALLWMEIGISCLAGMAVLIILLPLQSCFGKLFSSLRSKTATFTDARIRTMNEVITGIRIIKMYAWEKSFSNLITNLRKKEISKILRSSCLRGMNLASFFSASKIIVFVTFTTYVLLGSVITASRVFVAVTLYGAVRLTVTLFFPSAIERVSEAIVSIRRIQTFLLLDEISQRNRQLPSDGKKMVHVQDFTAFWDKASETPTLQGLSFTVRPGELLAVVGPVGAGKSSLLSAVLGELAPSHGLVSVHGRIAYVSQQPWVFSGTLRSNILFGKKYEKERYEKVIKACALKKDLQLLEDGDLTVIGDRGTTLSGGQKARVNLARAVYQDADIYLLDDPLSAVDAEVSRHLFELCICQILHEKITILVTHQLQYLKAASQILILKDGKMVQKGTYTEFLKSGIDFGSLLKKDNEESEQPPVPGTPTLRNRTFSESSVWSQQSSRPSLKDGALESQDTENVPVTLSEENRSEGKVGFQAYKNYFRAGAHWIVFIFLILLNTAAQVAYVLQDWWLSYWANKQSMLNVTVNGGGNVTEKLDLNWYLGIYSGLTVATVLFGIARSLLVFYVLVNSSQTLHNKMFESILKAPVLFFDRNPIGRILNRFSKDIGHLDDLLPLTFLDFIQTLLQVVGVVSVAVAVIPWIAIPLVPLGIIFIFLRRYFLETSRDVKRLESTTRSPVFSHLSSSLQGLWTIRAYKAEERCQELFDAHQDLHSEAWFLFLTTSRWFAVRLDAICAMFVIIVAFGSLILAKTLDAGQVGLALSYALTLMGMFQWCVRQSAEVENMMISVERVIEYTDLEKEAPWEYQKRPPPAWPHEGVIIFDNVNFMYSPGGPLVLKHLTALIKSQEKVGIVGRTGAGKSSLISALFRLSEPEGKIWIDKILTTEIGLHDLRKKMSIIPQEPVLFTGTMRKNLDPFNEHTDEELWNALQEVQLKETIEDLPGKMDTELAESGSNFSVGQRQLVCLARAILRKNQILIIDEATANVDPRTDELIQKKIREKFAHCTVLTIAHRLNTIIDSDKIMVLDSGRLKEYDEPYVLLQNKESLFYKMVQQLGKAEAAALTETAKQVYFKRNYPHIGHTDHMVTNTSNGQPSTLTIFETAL
Protocol: (§1) Freshly collected EDTA blood from healthy donors (n = 35) was prepared at 0°C–4°C, starting by separating the erythrocytes from plasma by centrifugation at 2,300 g for approximately 15 min. […] Lysis followed thereafter, with ten volumes of 5 mM Tris-HCl, 0.5 mM EGTA, 4 mM KCl (pH 8.1) and washed by repeated centrifugation at 20,000 g for 20 min and resuspension in the same buffer. Vesiculation was initiated by adding 39 volumes of a […] buffer ([…] Tris-HCl, pH 8.2) to one volume of cell suspension and completed by forcing the solution five times through a 27-gauge syringe needle to promote homogenization of the membranes. […] The resulting IOVs, which still contained ABC-transporters in the membrane, enabled us to control the intracellular environment, in this case the surrounding medium, and collect the cyclic nucleotides within. […] Radioactive labeled (^3H)-cAMP or (^3H)-cGMP (Perkin Elmer, Boston, MA, United States) were added to the incubation solutions in the concentration 20 and 2 μM, respectively, depending on the transporter examined, together with the appointed study drug in concentrations up to 1 mM. […] Next step was to collect the IOVs, which was done by filtration through a nitrocellulose membrane (Bio-Rad Laboratories, Feldkirchen, Germany), and then drying it. The resulting collection of radioactivity upon the filter, was later quantified by using a Packard TopCount NXT (Packard, Downers Grove, IL, United states) after adding scintillation fluid (MicroScint-O, PerkinElmer, Groningen, Netherlands).
(§2) IC50 and Ki values were calculated for each of the drugs, both for their ability to inhibit cAMP- and cGMP- efflux, as well as PDE3 and PDE5 activity. […] Inhibition curves were created accordingly, both with and without adjustment for normothermic control.

[2] = test system: ABCC5; format: biochemical
Protocol: as §1, §2

[3] = test system: PDE3; settings: ref Pathak et al., 2013; cited from earlier work
Chain of PDE3 (Q14432 whole entry): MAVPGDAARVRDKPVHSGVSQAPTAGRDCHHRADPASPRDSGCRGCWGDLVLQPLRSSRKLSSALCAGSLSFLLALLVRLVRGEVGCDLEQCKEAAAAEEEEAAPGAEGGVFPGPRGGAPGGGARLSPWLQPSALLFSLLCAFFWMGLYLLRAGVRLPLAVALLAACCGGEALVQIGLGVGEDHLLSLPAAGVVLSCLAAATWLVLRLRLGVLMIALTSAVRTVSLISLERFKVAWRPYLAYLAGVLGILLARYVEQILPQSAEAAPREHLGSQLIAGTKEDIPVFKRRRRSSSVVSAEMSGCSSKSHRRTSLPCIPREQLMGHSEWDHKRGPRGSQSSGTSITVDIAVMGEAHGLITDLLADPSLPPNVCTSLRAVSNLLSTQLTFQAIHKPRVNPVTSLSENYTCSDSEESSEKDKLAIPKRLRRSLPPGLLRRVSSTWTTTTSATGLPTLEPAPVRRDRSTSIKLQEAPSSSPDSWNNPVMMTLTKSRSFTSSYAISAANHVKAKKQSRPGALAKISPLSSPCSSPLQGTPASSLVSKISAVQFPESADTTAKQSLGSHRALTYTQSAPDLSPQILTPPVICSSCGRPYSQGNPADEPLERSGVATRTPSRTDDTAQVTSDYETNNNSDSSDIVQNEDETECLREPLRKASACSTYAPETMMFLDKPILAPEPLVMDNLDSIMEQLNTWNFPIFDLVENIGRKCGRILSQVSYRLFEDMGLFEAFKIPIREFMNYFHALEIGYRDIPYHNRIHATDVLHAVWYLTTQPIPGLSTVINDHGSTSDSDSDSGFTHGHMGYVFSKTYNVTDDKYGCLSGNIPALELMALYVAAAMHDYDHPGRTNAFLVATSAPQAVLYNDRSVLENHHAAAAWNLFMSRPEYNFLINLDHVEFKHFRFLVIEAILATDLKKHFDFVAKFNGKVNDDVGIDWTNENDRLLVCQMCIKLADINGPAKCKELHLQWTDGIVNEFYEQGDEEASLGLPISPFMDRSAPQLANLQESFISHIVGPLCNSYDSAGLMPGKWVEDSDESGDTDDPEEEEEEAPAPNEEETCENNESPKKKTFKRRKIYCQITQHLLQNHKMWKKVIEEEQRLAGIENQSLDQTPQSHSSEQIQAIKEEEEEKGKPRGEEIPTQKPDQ

Nc1cc(-c2ccncc2)c[nH]c1=O [Amrinone]
IC50 ([1]; 28°C, cAMP-efflux, inside-out vesicles, 20 µM 3H-cAMP, 60 min, read-out: ABCC4 IC50): 8.42 ± 4.81 µM
Ki ([1]; 28°C, cAMP-efflux, inside-out vesicles, read-out: ABCC4 Ki): 5.11 ± 2.91 µM
IC50 ([1]; 32°C, cAMP-efflux, inside-out vesicles, 20 µM 3H-cAMP, 60 min, read-out: ABCC4 IC50): 5.49 ± 2.25 µM
Ki ([1]; 32°C, cAMP-efflux, inside-out vesicles, read-out: ABCC4 Ki): 3.33 µM
IC50 ([1]; 34°C, cAMP-efflux, inside-out vesicles, 20 µM 3H-cAMP, 60 min, read-out: ABCC4 IC50): 1.21 ± 0.1 µM
Ki ([1]; 34°C, cAMP-efflux, inside-out vesicles, read-out: ABCC4 Ki): 0.73 ± 0.058 µM
IC50 ([1]; 37°C, cAMP-efflux, inside-out vesicles, 20 µM 3H-cAMP, 60 min, read-out: ABCC4 IC50): 4.65 ± 3.21 µM
Ki ([1]; 37°C, cAMP-efflux, inside-out vesicles, read-out: ABCC4 Ki): 2.82 µM

C[C@@H]1CC(=O)NN=C1c1ccc(NN=C(C#N)C#N)cc1 [Levosimendan]
Drug selectivity (IC50)/(IC50): (cGMP-efflux)/(PDE5) inhibition ([2]; 20°C): 0.045
Drug selectivity (IC50)/(IC50): (cGMP-efflux)/(PDE5) inhibition ([2]; 24°C): 0.124
Drug selectivity (IC50)/(IC50): (cGMP-efflux)/(PDE5) inhibition ([2]; 28°C): 0.065
Drug selectivity (IC50)/(IC50): (cGMP-efflux)/(cAMP-efflux) inhibition ([2]; 28°C): 0.44
Drug selectivity (IC50)/(IC50): (cGMP-efflux)/(PDE5) inhibition ([2]; 32°C): 0.081
Drug selectivity (IC50)/(IC50): (cGMP-efflux)/(cAMP-efflux) inhibition ([2]; 32°C): 0.80
Drug selectivity (IC50)/(IC50): (cGMP-efflux)/(PDE5) inhibition ([2]; 34°C): 0.093
Drug selectivity (IC50)/(IC50): (cGMP-efflux)/(cAMP-efflux) inhibition ([2]; 34°C): 1.09
Drug selectivity (IC50)/(IC50): (cGMP-efflux)/(PDE5) inhibition ([2]; 37°C): 0.184
Drug selectivity (IC50)/(IC50): (cGMP-efflux)/(cAMP-efflux) inhibition ([2]; 37°C): 3.03
Concentration at which it acts as a PDE3 inhibitor [3]: > 0.3 µM
Drug selectivity (IC50)/(IC50): (cAMP-efflux)/(PDE3) inhibition ([1]; 28°C): 270.65
IC50 ([1]; 28°C, Table 3, read-out: ABCC5 IC50 (Table 3)): 27.2 ± 21.3 µM
Ki ([1]; 28°C, Table 3, read-out: ABCC5 Ki (Table 3)): 16.5 ± 12.9 µM
Drug selectivity (IC50)/(IC50): (cAMP-efflux)/(PDE3) inhibition ([1]; 28°C, listed as L): 270.7
Drug selectivity (IC50)/(IC50): (cAMP-efflux)/(PDE3) inhibition ([1]; 32°C): 85.98
IC50 ([1]; 32°C, Table 3, read-out: ABCC5 IC50 (Table 3)): 16.5 ± 5.56 µM
Ki ([1]; 32°C, Table 3, read-out: ABCC5 Ki (Table 3)): 10 ± 3.37 µM
Drug selectivity (IC50)/(IC50): (cAMP-efflux)/(PDE3) inhibition ([1]; 34°C): 43.45
IC50 ([1]; 34°C, Table 3, read-out: ABCC5 IC50 (Table 3)): 12.7 ± 6.6 µM
Ki ([1]; 34°C, Table 3, read-out: ABCC5 Ki (Table 3)): 7.73 ± 4 µM
Drug selectivity (IC50)/(IC50): (cAMP-efflux)/(PDE3) inhibition ([1]; 37°C): 28.76
IC50 ([1]; 37°C, Table 3, read-out: ABCC5 IC50 (Table 3)): 9.41 ± 5.91 µM
Ki ([1]; 37°C, Table 3, read-out: ABCC5 Ki (Table 3)): 5.71 ± 3.58 µM
